Experimental data published in US6773881B2, “Methods of modulating hair growth” (The General Hospital Corporation, priority 2000, dated 2004).
Entries after “also recorded” stand apart in the source; their conditions may differ.

System: mouse vibrissa follicles
Assay: Mouse vibrissa organ culture system
Format: cell-based, mice
Details: 4 days
Procedure: Whisker pads were isolated from three 5 week old female C57/BL mice and were shortly immersed in 70% ethanol in phosphate-buffered saline (PBS), followed by a 10 minute incubation in William's E medium containing 400 U/ml penicillin, 400 μg/ml streptomycin, and 1.0 μg/ml fungizone (all from GibcoBRL). Vibrissa follicles in the anagen growth phase were isolated under a dissecting microscope, and the part of the vibrissa shaft that extend over the epidermal surface was cut off. Vibrissa follicles were then incubated on Millapore membranes in William's E medium alone (n-8), in medium containing 50 ng/ml recombinant murine VEGF (R&D Systems; n=6), or medium containing 5% fetal bovine serum (FBS; n=8). The media were replaced by fresh media after 2 days, and the follicles were incubated over a total period of 4 days. After 4 days, the length of the outgrowing hair shafts was measured by image analysis of digital pictures, taken under a Nikon E600 microscope.
In addition, whisker follicles were isolated and cultured as described above. Seven follicles were treated with 5 μg/ml of a goat anti-mouse VEGF neutralizing antibody (R&D Systems), and 8 follicles were treated with 5 μg/ml of normal goat IgG.

Substance: VEGF
- average hair growth (length of outgrowing hair shafts) (50 ng/ml recombinant murine VEGF, control 1.963±0.101 mm): 1.959±0.086 mm
- effect on in vitro hair growth compared with control (vibrissa organ culture, absence of a vascular system): no significant differences; also recorded: did not influence
